Data from patent US20060088598A1, “Intravenous composition, process for producing the same and preparation thereof” (LTT Bio-Pharama Co., Ltd., priority 2002, published 2006).

Tests used:
Assay type in all cases: physicochemical
[1] = Encapsulation ratio of agents in PLGA microparticles (HPLC of supernatant and deposit); details: FIG. 1; microparticles of Example 1
Protocol: 100 mg of PLGA (Wako) or PLA (Wako), 10 mg of egg yolk lecithin, and 0.5 mg of an agent were dissolved in 1 ml of dichloromethane. While cooling in an ice bath, the obtained solution was slowly added dropwise, through a 27G needle, to 25 ml of distilled water, which was being stirred with Polytron PT-2100 (Kinematica) or an ultrasonic generator (TOMY). After the stirring was continued for 10 minutes, the mixture was further stirred with a stirrer at room temperature for 2 hours. Thereafter, dichloromethane was removed. The obtained microparticles were concentrated by ultra filtration (Amicon, Centriprep YM-10) and were then purified by gel filtration (Pharmacia, PD-10). The thus obtained particles were centrifuged at 13,000 g for 10 minutes, and the agent contained in the supernatant and deposit was assayed by HPLC. HPLC analysis was carried out in a water/acetonitrile system for measuring the absorption at 210 nm or 240 nm using a C4 reverse phase column (Waters, Symmetry 300). With regard to agents, PGE1, and ASO06 produced by esterifying carboxylic acid and a hydroxyl group thereof, were used as prostanoids.

[2] = Releasing behavior after freeze-drying in 10% sucrose; details: freeze-dried in 10% sucrose, resuspended in 3% BSA-containing PBS; FIGS. 6 and 7
Protocol: (§1) 30 mg of PLGA (Wako) or PLA (Wako), 3 mg of egg yolk lecithin (Wako), and 1 mg of AS006 or BDP were dissolved in 1 ml of dichloromethane, and microparticles were then produced by the same method as described in Example 1. The obtained microparticles were suspended in distilled water, PBS, or 3% BSA-containing PBS. The suspension was allowed for a certain period of time, and was then centrifuged at 13,000 g for 10 minutes. Thereafter, AS006 or BDP contained in the deposit was assayed by HPLC.
A 10% stabilizer was added to the PLGA microparticle suspension produced in Example 2, and the suspension was then frozen with acetone/dry ice, followed by performing a freeze-drying treatment. The dried PLGA microparticles were dispersed in water again. Thereafter, the turbidity of the suspension was measured with a spectrophotometer, and the microparticle size thereof was measured with a dynamic light scattering photometer. In addition, the AS006-containing PLGA microparticles produced in Example 4 and the BDP-containing PLGA microparticles produced in Example 2 were freeze-dried in 10% sucrose, and the remaining amount of the agent and the releasing behavior were measured by the method described in Example 2.

[3] = Releasing behavior of agent from agent-encapsulated PLGA microparticles in suspension; details: 3% BSA-containing PBS at 37° C.; FIG. 3
Protocol: as §1

[4] = Remaining ratio of agent in PLGA microparticles after 1% SDS or 80% FBS, 37° C., 5 minutes; details: with addition of SDS, FIG. 4
Protocol: Each of the agents produced in Example 1 was suspended in 80% FBS (fetal bovine serum) or in a 1% SDS aqueous solution, and the suspension was incubated at 37° C. for 5 minutes. Thereafter, the resultant product was centrifuged at 13,000 g for 10 minutes, and the amount of the agent contained in the deposit was assayed by HPLC.

CCCC(=O)O[C@]1(C(=O)COC(=O)CC)CC[C@H]2[C@@H]3CCC4=CC(=O)CC[C@]4(C)[C@H]3[C@@H](O)C[C@@]21C [HBP, hydrocortisone butyrate propionate]
encapsulation ratio in PLGA microparticle [1]: significantly increased

CCCCC[C@H](O)/C=C/[C@H]1[C@H](O)CC(=O)[C@@H]1CCCCCCC(=O)O [PGE1, prostaglandin E1]
encapsulation ratio in PLGA microparticle [1]: almost no PGE1 could be encapsulated

CCC(=O)OCC(=O)[C@@]1(OC(=O)CC)[C@@H](C)C[C@H]2[C@@H]3CCC4=CC(=O)C=C[C@]4(C)[C@@]3(F)[C@@H](O)C[C@@]21C [BDP, betamethazone dipropionate]
releasing behavior with vs without freeze-drying [2]: same releasing behavior regardless whether or not a freeze-drying treatment had been carried out
sustained-release behavior [3]: same sustained-release behavior as that of ASO06
agent remaining in PLGA [4]: ≥ 80%
encapsulation ratio in PLGA microparticle [1]: significantly increased

C[C@]12CCC(=O)C=C1CC[C@@H]1[C@@H]2[C@@H](O)C[C@@]2(C)[C@H]1CC[C@]2(O)C(=O)CO [hydrocortisone, Hydrocortisone]
encapsulation ratio in PLGA microparticle [1]: almost neither hydrocortisone nor betamethazone could be encapsulated
